Measurements published in patent US12077503B2, “Substituted cyclic amides and their use as herbicides” (FMC CORPORATION, priority 2015, dated 2024).
Where two headings read alike, the source gives them in different places.

How the values were obtained:
Assay type in all cases: in vivo
[1] = tested on: pigweed (Amaranthus retroflexus); assay: Test A preemergence; settings: Amaranthus retroflexus, pre-emergence, 240 h, preemergence, 0 to 100 scale where 0 is no effect and 100 is complete control, read-out: Pigweed plant response rating; for pest or weed control at 125 g/ha: 125 g ai/ha; for pest or weed control at 500 g/ha: 500 g ai/ha
[2] = tested on: barnyardgrass (Echinochloa crus-galli); assay: Test A preemergence; settings: Echinochloa crus-galli, pre-emergence, 240 h, preemergence, 0 to 100 scale where 0 is no effect and 100 is complete control, read-out: Barnyardgrass plant response rating; for pest or weed control at 125 g/ha: 125 g ai/ha; for pest or weed control at 500 g/ha: 500 g ai/ha
Procedure, shortened: (§1)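 Preemergence soil spray on seeded pots or post-emergence spray on 1–2 leaf plants, in loam–sand blend. Greenhouse ~10 d. Visual rating 0–100 against untreated plants.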

[3] = tested on: ragweed (common ragweed, Ambrosia elatior); assay: Test A preemergence; settings: Ambrosia artemisiifolia, pre-emergence, 240 h, preemergence, 0 to 100 scale where 0 is no effect and 100 is complete control, read-out: Ragweed plant response rating; for pest or weed control at 125 g/ha: 125 g ai/ha; for pest or weed control at 500 g/ha: 500 g ai/ha
Procedure, shortened: as §1

[4] = tested on: ryegrass, Italian (Italian ryegrass, Lolium multiflorum); assay: Test A preemergence; settings: Lolium multiflorum, pre-emergence, 240 h, preemergence, 0 to 100 scale where 0 is no effect and 100 is complete control, read-out: Ryegrass, Italian plant response rating; for pest or weed control at 125 g/ha: 125 g ai/ha; for pest or weed control at 500 g/ha: 500 g ai/ha
Procedure, shortened: as §1

[5] = tested on: giant foxtail (Setaria faberii); assay: Test A preemergence; settings: Setaria faberi, pre-emergence, 240 h, preemergence, 0 to 100 scale where 0 is no effect and 100 is complete control, read-out: Foxtail, Giant plant response rating; for pest or weed control at 125 g/ha: 125 g ai/ha; for pest or weed control at 500 g/ha: 500 g ai/ha
Procedure, shortened: as §1

[6] = tested on: Kochia (Kochia scoparia); assay: Test A preemergence; settings: Bassia scoparia, pre-emergence, 240 h, preemergence, 0 to 100 scale where 0 is no effect and 100 is complete control, read-out: Kochia plant response rating; for pest or weed control at 125 g/ha: 125 g ai/ha; for pest or weed control at 500 g/ha: 500 g ai/ha
Procedure, shortened: as §1

[7] = tested on: wheat (Triticum aestivum); assay: Test A postemergence; settings: Triticum aestivum, post-emergence, 240 h, postemergence; for plant injury at 125 g/ha: 125 g ai/ha, visual injury vs untreated controls after approx. 10 d, 0 = no effect, 100 = complete control, read-out: Wheat plant response rating (0 to 100 scale); for plant injury at 500 g/ha: 500 g ai/ha, 0 to 100 scale, 0 is no effect, 100 is complete control, read-out: Wheat plant response rating
Procedure, shortened: as §1

[8] = tested on: barnyardgrass (Echinochloa crus-galli); assay: Test A postemergence; settings: Echinochloa crus-galli, post-emergence, 240 h, postemergence; for pest or weed control at 125 g/ha: 125 g ai/ha, visual injury vs untreated controls after approx. 10 d, 0 = no effect, 100 = complete control, read-out: Barnyardgrass plant response rating (0 to 100 scale); for pest or weed control at 500 g/ha: 500 g ai/ha, 0 to 100 scale, 0 is no effect, 100 is complete control, read-out: Barnyardgrass plant response rating
Procedure, shortened: as §1

[9] = tested on: giant foxtail (Setaria faberii); assay: Test A postemergence; settings: Setaria faberi, post-emergence, 240 h, postemergence; for pest or weed control at 125 g/ha: 125 g ai/ha, visual injury vs untreated controls after approx. 10 d, 0 = no effect, 100 = complete control, read-out: Foxtail, Giant plant response rating (0 to 100 scale); for pest or weed control at 500 g/ha: 500 g ai/ha, 0 to 100 scale, 0 is no effect, 100 is complete control, read-out: Foxtail, Giant plant response rating
Procedure, shortened: as §1

[10] = tested on: Kochia (Kochia scoparia); assay: Test A postemergence; settings: Bassia scoparia, post-emergence, 240 h, postemergence; for pest or weed control at 125 g/ha: 125 g ai/ha, visual injury vs untreated controls after approx. 10 d, 0 = no effect, 100 = complete control, read-out: Kochia plant response rating (0 to 100 scale); for pest or weed control at 500 g/ha: 500 g ai/ha, 0 to 100 scale, 0 is no effect, 100 is complete control, read-out: Kochia plant response rating
Procedure, shortened: as §1

[11] = tested on: sedge, umbrella (small-flower umbrella sedge, Cyperus difformis); assay: Test B flooded paddy test; settings: Cyperus difformis, 250 g ai/ha, Flood; 0 to 100 scale where 0 is no effect and 100 is complete control; read-out: Sedge, Umbrella plant response rating
Procedure, shortened: (§2)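 Visual ratings (0 none to 100 complete control) are relative to untreated plants, taken 13–15 d after treatment in a greenhouse. Test material went straight into floodwater standing 3 cm above the soil, kept constant, on plants at the 2-leaf stage.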

[12] = tested on: barnyardgrass (Echinochloa crus-galli); assay: Test B flooded paddy test; settings: Echinochloa crus-galli, 250 g ai/ha, Flood; 0 to 100 scale where 0 is no effect and 100 is complete control; read-out: Barnyardgrass plant response rating
Procedure, shortened: as §2

[13] = tested on: rice (Oryra sativa); assay: Test B flooded paddy test; settings: Oryza sativa, 250 g ai/ha, Flood; 0 to 100 scale where 0 is no effect and 100 is complete control; read-out: Rice plant response rating
Procedure, shortened: as §2

[14] = tested on: ducksalad (Heteranthera limosa); assay: Test B flooded paddy test; settings: Heteranthera limosa, 250 g ai/ha, Flood; 0 to 100 scale where 0 is no effect and 100 is complete control; read-out: Ducksalad plant response rating
Procedure, shortened: as §2

[15] = visual injury rating, approximately 10 d

| Structure (SMILES) | pest or weed control at 125 g/ha ([1]; approx. 10 d) | pest or weed control at 500 g/ha [1] | pest or weed control at 125 g/ha ([2]; approx. 10 d) | pest or weed control at 500 g/ha [2] | pest or weed control at 500 g/ha [3] | pest or weed control at 500 g/ha [4] | pest or weed control at 500 g/ha [5] | pest or weed control at 500 g/ha [6] | plant injury at 125 g/ha [7] | plant injury at 500 g/ha [7] | pest or weed control at 125 g/ha [8] | pest or weed control at 500 g/ha [8] | pest or weed control at 125 g/ha [9] | pest or weed control at 500 g/ha [9] | pest or weed control at 125 g/ha [10] | pest or weed control at 500 g/ha [10] | pest or weed control at 250 g/ha [11] | pest or weed control at 250 g/ha [12] | pest or weed control at 250 g/ha [13] | pest or weed control at 250 g/ha [14] | further results |
| --- | --- | --- | --- | --- | --- | --- | --- | --- | --- | --- | --- | --- | --- | --- | --- | --- | --- | --- | --- | --- | --- |
| CCc1ccc([C@H]2CNC(=O)[C@@H]2C(=O)Nc2cccc(F)c2C)cc1 [Compound 1177] | 0% | 20% | 70% | 100% | 30% | 70% | 100% | 30% | 20% | 30% | 70% | 90% | 50% | 70% | 0% | 0% | 0% | 70% | 20% | 95% | pest or weed control at 125 g/ha ([3]; approx. 10 d): 0%; pest or weed control at 125 g/ha ([4]; approx. 10 d): 30%; pest or weed control at 125 g/ha ([5]; approx. 10 d): 70%; pest or weed control at 125 g/ha ([6]; approx. 10 d): 30% |
| CCc1ccc([C@H]2CNC(=O)[C@@H]2C(=O)Nc2ccccc2SC)cc1 [Compound 1178] | 20% | 50% | 20% | 50% | 50% | 20% | 70% | 70% | 0% | 0% | 0% | 30% | 0% | 30% | 20% | 40% | 0% | 20% | 20% | 90% | pest or weed control at 125 g/ha ([3]; approx. 10 d): 0%; pest or weed control at 125 g/ha ([4]; approx. 10 d): 0%; pest or weed control at 125 g/ha ([5]; approx. 10 d): 20%; pest or weed control at 125 g/ha ([6]; approx. 10 d): 40% |
| O=C1NC[C@H](c2nccs2)[C@H]1C(=O)Nc1cccc(F)c1F [Compound 1182] | 0% | 0% | 0% | 0% | 0% | 0% | 0% | 0% | 0% | 0% | 0% | 0% | 0% | 0% | 0% | 0% | 0% | 0% | 0% | 0% | pest or weed control at 125 g/ha ([3]; approx. 10 d): 0%; pest or weed control at 125 g/ha ([4]; approx. 10 d): 0%; pest or weed control at 125 g/ha ([5]; approx. 10 d): 0%; pest or weed control at 125 g/ha ([6]; approx. 10 d): 0% |
| CSc1ccccc1NC(=O)[C@H]1C(=O)N(C)C[C@@H]1c1ccc(C(F)(F)F)nc1 [Compound 1198] | – | 100% | – | 100% | 100% | 60% | 100% | 80% | 0% | 60% | 80% | 90% | 80% | 90% | 60% | 60% | 30% | 20% | 0% | 40% | pest or weed control at 125 g/ha [1, 15]: 70%; pest or weed control at 125 g/ha [2, 15]: 70%; pest or weed control at 125 g/ha [3, 15]: 70%; pest or weed control at 125 g/ha [4, 15]: 30%; pest or weed control at 125 g/ha [5, 15]: 100%; pest or weed control at 125 g/ha [6, 15]: 80% |
